SMILES strings stand for the structures. Values after ≈ are worked out from the molar mass of the structure shown.

The conditions of series [1]: 25° C., reported by Sigma-Aldrich; cited from earlier work.
Series [2] relates to Clostridium difficile (strain VPI 10463 (ATCC-43255)). Put plainly: Mouse model of Clostridium difficile infection, disease-associated phenotypes. Format: in vivo. As for the experimental part: This experiment was conducted to analyze the effects of glycan therapeutics in a mouse model of Clostridium difficile infection (Chen et al, 2008, A Mouse Model of Clostridium difficile—Associated Disease. Gastroenterology 135(6), 1984-1992). In this model, normal mice were exposed to an antibiotic regimen that renders them susceptible to C. difficile infection and disease symptoms, similar with respect to their development and manifestation of human clinical disease. In humans, the disease is most often the result of exposure to broad spectrum antibiotics which is thought to result in intestinal dysbiosis and subsequent increased colonic colonization with C. difficile. The increased bio-burden of C. difficile leads to toxin production by the bacterium and colonic inflammation. Clinical manifestations in humans include diarrhea, weight loss, intestinal inflammation, fever and dehydration. The clinical incidence of C. difficile infection and disease is about 750,000 cases per year in the US.
(§1) Mice (female C57BL/6, 8-10 weeks old, 16-18 grams each; Harlan Laboratories, Indianapolis, Ind.) were housed in groups of 3 per cage, with 4 cages per treatment group. Mice were exposed to a cocktail of antibiotics in their drinking water for a period of 9 days, starting on day −14, fourteen days before Clostridium difficile challenge on day 0. The antibiotic cocktail consisted of 1% glucose, kanamycin (0.5 mg/ml), gentamicin (0.044 mg/ml), colistin (1062.5 U/ml), metronidazole (0.269 mg/ml), ciprofloxacin (0.156 mg/ml), ampicillin (0.1 mg/ml) and vancomycin (0.056 mg/ml). Three days prior to Clostridium difficile challenge (on Day −3), mice received a single dose of clindamycin (10 mg/kg) in a volume of 0.5 mL distilled water by oral gavage (PO) (see Table 10). All chemicals were purchased from Sigma-Aldrich Corp. (St. Louis, Mo.). On day 0, mice were challenged with Clostridium difficile (strain VPI 10463 (ATCC-43255)) spores at approximately 4.5 log10 spores per mouse, PO, in a dose volume of 0.5 mL distilled water.
Disease-associated phenotypes were recorded for a duration of ten days starting on the day of Clostridium difficile challenge (on day 0) through day 10. The phenotypes, including lethargy, hunched posture and ruffled coat, wet tail/abdomen and hypothermia were scored from 0 to 4: Normal=0; Lethargic=1; Lethargic+Hunched=2; Lethargic+Hunched+Wet tail/abdomen (diarrhea)=3; and Lethargic+Hunched+Wet tail/abdomen+Hypothermic=4. Death (day 0 to day 10 or 11) and weight (day 1 to day 7 and day 10) of the animals was also monitored and recorded.
In these studies, all animals with wet tail/abdomen (diarrhea; clinical score of “3”) progressed to death. Diarrhea is an indication of colonic inflammation and hemorrhage and is a contributing factor to the weight loss seen in rodent models of C. difficile colonization/infection.
A treatment's ability to protect animals from death through day 6 in these experiments indicates disease prevention, e.g., in a human.
In addition, carriage of Clostridium difficile spores, which is indicative of Clostridium difficile gut colonization in both mice and humans, was assessed daily from day 0 to day 6. For spore CFU enumeration, fecal pellets from the mice were suspended in 50% ethanol in phosphate-buffered saline (PBS) and vortexed. […]
Effects of treatments was assessed by comparing the disease-associated phenotypes in glycan-treated, untreated (plain water) and vancomycin-treated groups. […]

The test system of a further series is gut microbiota. Put plainly: Mouse model of Clostridium difficile infection, gut microbiota 16S rRNA sequencing. It counts as in vivo. To be noted: Day 6; predicted from 16S rRNA sequencing using PICRUST. The protocol:
as §1
To determine how the gut microbiota composition responds to treatment with glycan therapeutics, 16S rRNA sequencing of fecal pellets on the V4 variable region using standard protocols from the Earth Microbiome Project was performed (www.earthmicrobiome.org/emp-standard-protocols/). […]

For `O=C[C@H](O)[C@@H](O)[C@H](O)[C@H](O)CO` [D-glucose], in series [1], the aqueous solubility was 909 mg/mL (≈ 5050 mM) and the “aqueous solubility as Brix” value is 48 Brix.

For the compound `CN[C@H](CC(C)C)C(=O)N[C@H]1C(=O)N[C@@H](CC(N)=O)C(=O)N[C@H]2C(=O)N[C@H]3C(=O)N[C@H](C(=O)N[C@H](C(=O)O)c4cc(O)cc(O)c4-c4cc3ccc4O)[C@H](O)c3ccc(c(Cl)c3)Oc3cc2cc(c3O[C@@H]2O[C@H](CO)[C@@H](O)[C@H](O)[C@H]2O[C@H]2C[C@](C)(N)[C@H](O)[C@H](C)O2)Oc2ccc(cc2Cl)[C@H]1O` [vancomycin], in series [2] (PO gavage QD days 0 to 4), the “animals died by day 10” value worked out at 17% and the “animals survived to day 7” value turned out to be 100%. For the same compound, the “clinical score of survivors (0 to 4)” value in series [2] (after treatments were discontinued, through day 10 or 11) is on record as “above 0”. The “C. difficile spores in the feces” value in series [2] (days 0-6) was “no detectable spores”. Besides, the “clinical signs on day 10” value in series [2] (mouse, in vivo) is listed as “exhibited clinical signs”. In addition, in the series with gut microbiota, the “predicted functional potential of the gut microbiome to convert primary bile acids to secondary bile acids” value is “not observed”.

The aqueous solubility is the dissolved amount per volume that the medium holds.

The values above are taken from US20170151268A1, “GLYCAN THERAPEUTICS AND RELATED METHODS THEREOF” (KALEIDO BIOSCIENCES, INC., priority 2015, published 2017).
